Assay results as given in patent US20110044929A1, “FORMULATIONS AND METHODS FOR TREATMENT OF INFLAMMATORY DISEASES” (Vical Incorporated, priority 2004, published 2011).
Where two headings read alike, the source gives them in different places.

Assays:
[1] = test system: HUVEC cells; experiment: Adenosine release from HUVEC by liquid chromatography; assay type: cell-based, human; conditions: over time, normoxic and hypoxic
Procedure: For this reason, studies were undertaken to determine the effect of certain poloxamers in vitro in human vascular endothelial cells (HUVEC) and human skeletal muscle myoblast (HSMM) cells under normoxic and hypoxic (5% O2) conditions. Production of adenosine, cytokines, growth factors, or a combination of these biologically relevant molecules was measured after exposure to either poloxamer-188 (˜BASF Pluronic F-68), poloxamer-235 (˜BASF Pluronic P85), cilostazol, Del-1 protein, or medium alone. Monitoring for generation of adenosine was conducted by HPLC. […] This increased level of adenosine was seen over time in both hypoxic and normoxic cells exposed to poloxamer-235.
HUVEC and HSMM cells are harvested after fourth population doubling from the time of purchase by trypsinization. The cells are suspended in appropriate complete medium and plated in a 60×15 culture dishes at the density of […] per well and incubated for 24 hrs. The cells are fed with EBM (HUVEC cells) and SkBM (HSMM cells) culture medium containing 0.5% FCS for 24 hrs to growth-arrest the cells. […]

[2] = test system: patients with intermittent claudication; conditions: cited from earlier work
[3] = test system: patients with intermittent claudication; conditions: Lederman et al. 2002; cited from earlier work
[4] = test system: mice; experiment: Subcutaneous Matrigel implant model; assay type: in vivo, mouse
Text: Poloxamer Inhibition of Inflammation in Murine Study: Initial studies incorporating either FGF (positive control), saline (negative control), Del-1 protein (another known angiogenic agent) or poloxamer-188 into Matrigel that was placed subcutaneously into the lower abdomen of mice yielded interesting results. Matrigel Basement Membrane Matrix (BD Biosciences) is a solubilized basement membrane preparation extracted from the Engelbreth-Holm-Swarm (EHS) mouse sarcoma. Its major component is laminin, followed by collagen IV, heparan sulfate proteoglycans, entactin and nidogen. In the Matrigel angiogenesis model, poloxamer-188 was compared to other known angiogenic agents such as fibroblast growth factor (FGF, positive control), Del-1 protein, or saline as a negative control.
After gaining experience with the system, it was felt that the quantity of Del-1 used should be titrated to see if a dose response with the protein could be distinguished, and to alter the ratio of P188 to matrigel. In the first round of studies it was noted that the 5% P188 concentration added to the Matrigel appeared to inhibit polymerization of the Matrigel. […] Therefore, in the repeat in vivo experiment the Matrigel and poloxamer concentrations were altered such that the initial concentrations were similar to those that yielded good polymerization, but still gave a final concentration of 5% P188 (the concentration tested in clinical trials).
Matrigel implants were placed subcutaneously in the lower abdominal/inguinal region of mice and harvested 4 to 7 days later.

[5] = test system: CD-1 mice; experiment: Murine hindlimb ischemia model; assay type: in vivo, mouse; conditions: repeated intramuscular injections
Text: A gene-based approach to Del-1 delivery using a plasmid vector was developed for the purpose of enhancing relatively sustained local concentrations with a consequent reduction in systemic exposure to the angiogenic growth factor while at the same time avoiding known adverse effects that may arise with the use of a viral platform.
Results from preclinical studies with recombinant murine Del-1 protein and with formulated Del-1 plasmid compared favorably to results obtained with bFGF and VEGF165. In-house research provided for selection of the non-ionic polymer poloxamer 188 as an important constituent for a pharmaceutical formulation of the Del-1 gene encoded on plasmid DNA. The poloxamer formulation was developed after considerable research to provide for a compound that would give increased expression over DNA in saline.
The effects of formulated hDel-1 plasmid versus formulated VEGF165 plasmid and empty plasmid were investigated in a murine hindlimb ischemia model. Bilateral ischemia was induced in hindlimbs of CD-1 mice by ligation of the femoral artery. A control group underwent sham surgery without femoral artery ligation. […] Exercise tolerance was then determined at weekly intervals through four weeks post surgery.

In the case of `O=C1CCc2cc(OCCCCc3nnnn3C3CCCCC3)ccc2N1` [cilostazol], the “adenosine in the supernatant” value [1] is listed as “least stimulatory”, the peak walking time ([2]; 100 mg twice/day) is listed as “improve peak walking time” and the “observed difference in change in PWT versus placebo” value ([2]; Dawson et al. 1998) is listed as 2.00 min. The “side effects (headaches, palpitations, gastrointestinal disturbances)” value ([2]; clinical trials) was “high incidence of side effects”.

In the case of “recombinant fibroblast growth factor-2: recombinant fibroblast growth factor-2 of the TRAFFIC study”, the “observed difference in change in PWT versus placebo” value [3] is listed as 1.17 min.

B1: Del-1 protein: Developmentally regulated Endothelial Locus-1, an endothelial cell stimulating angiogenic protein (protein, UniProt O43854 24-480, looked up)
EGF-like repeat and discoidin …: DICDPNPCENGGICLPGLADGSFSCECPDGFTDPNCSSVVEVASDEEEPTSAGPCTPNPCHNGGTCEISEAYRGDTFIGYVCKCPRGFNGIHCQHNINECEVEPCKNGGICTDLVANYSCECPGEFMGRNCQYKCSGPLGIEGGIISNQQITASSTHRALFGLQKWYPYYARLNKKGLINAWTAAENDRWPWIQINLQRKMRVTGVITQGAKRIGSPEYIKSYKIAYSNDGKTWAMYKVKGTNEDMVFRGNIDNNTPYANSFTPPIKAQYVRLYPQVCRRHCTLRMELLGCELSGCSEPLGMKSGHIQDYQITASSIFRTLNMDMFTWEPRKARLDKQGKVNAWTSGHNDQSQWLQVDLLVPTKVTGIITQGAKDFGHVQFVGSYKLAYSNDGEHWTVYQDEKQRKDKVFQGNFDNDTHRKNVIDPPIYARHIRILPWSWYGRITLRSELLGCTEEE
With B1 the “adenosine in the supernatant” value [1] was “least stimulatory”, the “cellular response of Matrigel implant” value ([4]; Del-1 less than 200 ugs/ml) was “substantially less cellular response” and the “vessel growth in Matrigel angiogenesis model” value ([4]; first round of studies) was “light to moderate vessel growth”. For the same molecule, the “morphologic pattern of Matrigel implant (cellularity)” value ([4]; harvested 4 to 7 days, H&E, Del-1 at 200 ug/ml) was “high cellularity” and the vascular perfusion [5] was “increased vascular perfusion”.
